Measurements taken from ChEMBL document CHEMBL5338773, “First-in-Class Selective Inhibitors of the Lysine Acetyltransferase KAT8” (J Med Chem, 2023).
Activity calls are given as the source filed them. The rule behind the calls is not given here.

Key:
[1] = organism: Homo sapiens; assay: Inhibition of human recombinant KDAC1 using Boc-Lys-(Ac)-AMC as substrate at 50 to 100 uM incubated for 45 mins by fluorescence microplate reader analysis; details: dose 50-100 µM
[2] = organism: Homo sapiens; assay: Inhibition of human recombinant KDAC8 using Boc-Lys-(Ac)-AMC as substrate at 50 to 100 uM incubated for 45 mins by fluorescence microplate reader analysis; details: dose 50-100 µM
[3] = target: T1, Histone acetyltransferase KAT8 (Homo sapiens) (UniProt Q9H7Z6); assay: Time dependent inhibition of N-terminal 6His tagged KAT8 (173 to 458 residues) (unknown origin) expressed in Escherichia coli BL21(DE3) using biotinylated histone H4 peptide and [3H]Acetyl-CoA as substrates at 200 uM preincubated for 5 to 120 mins followed by substrate addition and measured after 4 hrs by MicroBeta microplate counter analysis; details: time 245-360 min
T1 sequence (whole entry): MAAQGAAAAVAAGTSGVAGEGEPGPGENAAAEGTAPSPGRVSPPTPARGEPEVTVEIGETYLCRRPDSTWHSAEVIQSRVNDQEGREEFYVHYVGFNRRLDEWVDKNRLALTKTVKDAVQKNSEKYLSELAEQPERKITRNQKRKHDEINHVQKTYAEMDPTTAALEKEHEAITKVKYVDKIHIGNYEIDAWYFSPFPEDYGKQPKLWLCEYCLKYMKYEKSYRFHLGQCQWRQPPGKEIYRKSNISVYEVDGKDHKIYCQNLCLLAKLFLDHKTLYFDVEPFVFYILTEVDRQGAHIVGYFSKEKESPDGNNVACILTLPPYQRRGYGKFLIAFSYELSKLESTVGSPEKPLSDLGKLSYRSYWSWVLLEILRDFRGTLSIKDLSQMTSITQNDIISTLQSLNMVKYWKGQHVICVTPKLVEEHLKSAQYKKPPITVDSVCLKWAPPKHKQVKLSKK

[4] = target: T1, Histone acetyltransferase KAT8 (Homo sapiens); assay: Reversible inhibition of N-terminal 6His tagged KAT8 (173 to 458 residues) (unknown origin) expressed in Escherichia coli BL21(DE3) using biotinylated histone H4 peptide and [3H]Acetyl-CoA as substrates at 10XIC50 preincubated for 30 mins followed by dilution and substrate addition and measured upto 240 mins by MicroBeta microplate counter analysis; details: time 270.0 min
[5] = target: T1, Histone acetyltransferase KAT8 (Homo sapiens); assay: Binding affinity to KAT8 in human HT-29 cells at 59 degreeC at 100 nM incubated for 4 hrs by […] analysis; format: cell-based
[6] = target: T1, Histone acetyltransferase KAT8 (Homo sapiens); assay: Inhibition of human KAT8 in human HT-29 cells assessed as decrease in histone H4K16 acetylation level at 10 to 50 uM incubated for 24 hrs by Western blot analysis; format: cell-based; details: dose 10-50 µM
[7] = target: T1, Histone acetyltransferase KAT8 (Homo sapiens); assay: Inhibition of human KAT8 in human HT-29 cells assessed as change in KAT8 expression level at 10 to 50 uM incubated for 24 hrs by Western blot analysis; format: cell-based; details: dose 10-50 µM
[8] = target: T1, Histone acetyltransferase KAT8 (Homo sapiens); assay: Inhibition of human KAT8 in human HT-29 cells assessed as change in histone H3K27 acetylation level by measuring fluorescence intensity in nucleus at 50 uM incubated for 24 hrs by DAPI staining based immunofluorescence analysis; format: cell-based
[9] = system: NCI-H1299; assay: Antiproliferative activity against human NCI-H1299 cells assessed as cell proliferation inhibition at 10 to 100 uM incubated for 72 hrs by MTT assay; format: functional, cell-based; details: dose 10-100 µM
[10] = system: A549; assay: Antiproliferative activity against human A549 cells assessed as cell proliferation inhibition at 10 to 100 uM incubated for 72 hrs by MTT assay; format: functional, cell-based; details: dose 10-100 µM
[11] = system: HT-29; assay: Antiproliferative activity against human HT-29 cells assessed as cell proliferation inhibition at 10 to 100 uM incubated for 72 hrs by MTT assay; format: functional, cell-based; details: dose 10-100 µM
[12] = system: HeLa; assay: Antiproliferative activity against human HeLa cells assessed as cell proliferation inhibition at 10 to 100 uM incubated for 72 hrs by MTT assay; format: functional, cell-based; details: dose 10-100 µM
[13] = system: NCI-H460; assay: Antiproliferative activity against human NCI-H460 cells assessed as cell proliferation inhibition at 10 to 100 uM incubated for 72 hrs by MTT assay; format: functional, cell-based; details: dose 10-100 µM
[14] = system: U-251; assay: Antiproliferative activity against human U-251 cells assessed as cell proliferation inhibition at 10 to 100 uM incubated for 72 hrs by MTT assay; format: functional, cell-based; details: dose 10-100 µM
[15] = system: AHH-1; assay: Cytotoxicity against human AHH-1 cells assessed as inhibition of cell viability at 25 to 200 uM incubated for 72 hrs by MTT assay; format: toxicity, cell-based; details: ahh-1, 72 h, dose 25-200 µM
[16] = system: HT-29; assay: Induction of cell cycle arrest in human HT-29 cells assessed as increase in number of cells at sub-G1 phase with DNA hypodiploid at 50 uM incubated for 72 hrs by PI-staining based flow cytometry (Rvb=2%); format: functional
[17] = system: HCT-116; assay: Induction of cell cycle arrest in human HCT-116 cells assessed as increase in number of cells at sub-G1 phase with DNA hypodiploid at 50 uM incubated for 72 hrs by PI-staining based flow cytometry (Rvb=2%); format: functional
[18] = system: HCT-116; assay: Induction of cell cycle arrest in human HCT-116 cells assessed as increase in number of cells at sub-G1 phase with DNA hypodiploid at 100 uM incubated for 72 hrs by PI-staining based flow cytometry (Rvb=2%); format: functional
[19] = system: HeLa; assay: Induction of cell cycle arrest in human HeLa cells assessed as increase in number of cells at sub-G1 phase with DNA hypodiploid at 50 uM incubated for 72 hrs by PI-staining based flow cytometry (Rvb=2%); format: functional
[20] = system: HT-29; assay: Effect on cell cycle progression in human HT-29 cells assessed as changes in cell cycle stages at 50 to 100 uM incubated for 72 hrs by PI-staining based flow cytometry; format: functional; details: dose 50-100 µM
[21] = system: HCT-116; assay: Effect on cell cycle progression in human HCT-116 cells assessed as changes in cell cycle stages at 50 to 100 uM incubated for 72 hrs by PI-staining based flow cytometry; format: functional; details: dose 50-100 µM
[22] = system: HCT-116; assay: Induction of apoptosis in human HCT-116 cells assessed as slight increase in apoptotic cells at 50 to 100 uM incubated for 72 hrs by Annexin V-FITC staining based flow cytometry; format: functional, cell-based; details: dose 50-100 µM
[23] = system: HeLa; assay: Induction of apoptosis in human HeLa cells assessed as slight increase in apoptotic cells at 50 to 100 uM incubated for 72 hrs by Annexin V-FITC staining based flow cytometry; format: functional, cell-based; details: dose 50-100 µM
[24] = system: HCT-116; assay: Downregulation of UCP2 mRNA expression in human HCT-116 cells at 100 uM incubated for 48 hrs by qRT-PCR analysis; format: functional, cell-based
[25] = system: NCI-H1299; assay: Induction of autophagy in human NCI-H1299 cells stably expressing EGFP-LC3 assessed as increase in EGFP-LC3 puncta formation at 10 to 100 uM incubated for 48 hrs by Fluorescence microscopy; format: functional, cell-based; details: dose 10-100 µM
[26] = system: NCI-H1299; assay: Induction of autophagy in human NCI-H1299 cells stably expressing EGFP-LC3 assessed as change in LC3-II/LC3-I ratio at 10 to 100 uM incubated for 48 hrs by Western blot analysis; format: functional, cell-based; details: dose 10-100 µM
[27] = GSH reactivity of compound at pH 7.5 buffer at 0.5 mM and measured upto 24 hrs in presence of DTT and BME by HPLC analysis; format: physicochemical; details: pH 7.5, 24 h, 500 µM

Structure (SMILES)	inhibition [1]	inhibition [2]	inhibition [3]	inhibition [4]	Activity [5]	inhibition [6]	inhibition [7]	inhibition [8]	Activity [9]	Activity [10]	Activity [11]	Activity [12]	Activity [13]	Activity [14]	Activity [15]	Activity [16] [%]	Activity [17] [%]	Activity [18] [%]	Activity [19] [%]	Activity [20]	other results
O=C(O)c1ccc(N2N=C(c3ccccc3)/C(=C/c3ccc[nH]3)C2=O)cc1	inactive	inactive	inactive	Active	Active	Active	inactive	inactive	Dose-Dependent Effect	Dose-Dependent Effect	Active	Active	inactive	inactive	Non-Toxic	8	7	13	2	inactive	Activity [21]: inactive; Activity [22]: Active; Activity [23]: Active; Activity [24]: Active; Activity [25]: Active; Activity [26]: Active; Drug metabolism [27]: Not Active
CC1=NN(c2ccc(C(=O)O)cc2)C(=O)/C1=C\c1ccc[nH]1	inactive	inactive	inactive	Active	Active	Active	inactive	inactive	Dose-Dependent Effect	Dose-Dependent Effect	Active	Active	Active	inactive	Non-Toxic	7	3	6	2	inactive	Activity [21]: inactive; Activity [22]: Active; Activity [23]: Active; Activity [24]: Active; Activity [25]: Active; Activity [26]: Active; Drug metabolism [27]: Not Active
